The nature of the data set: Storage stability: normalized peptide content by analytical HPLC of glycerin/water solutions in glass vials, with or without salt. It is filed as physicochemical. To be noted: 40° C., glass vial. On the procedure: Solutions of 127 mmol/kg H29C14—NH—CO-Dab-Val-Dab-OH in a Glycerin water mixture (˜2.3:1) containing salt concentrations of 382 mmol/kg have been prepared, distributed to 3 g per 10 ml glass vial and stored at 40° C. and 25° C. After various times, samples have been analyzed for their peptide content with analytical HPLC. The results have been normalized to the content at the preparation time to 100%.
Solutions of 119 mmol/kg Palm-Lys-Val-Lys-OH (SEQ ID NO:2) in Glycerin water mixture (˜2.3:1) containing salt concentrations of one or three equivalents as indicated below have been prepared, distributed to 3 g per 10 ml glass vial and stored at 40° C. After various times, samples have been analyzed for their peptide content with analytical HPLC. The results have been normalized to the content at the preparation time to 100%.
Solutions of 246 mmol/kg Palm-Lys-Val-Dab-OH (SEQ ID NO:5) in Glycerin water mixture (˜2.3:1) containing salt concentrations of one or three equivalents as indicated below have been prepared, distributed to 3 g per 10 ml glass vial and stored at 40° C. After various times, samples have been analyzed for their peptide content with analytical HPLC. The results have been normalized to the content at the preparation time to 100%.

Square brackets hold non-standard residues; d marks the D form. * marks the point of attachment. Palmitoyl = CCCCCCCCCCCCCCCC(=O)*; Dab = NCC[C@H](N)C(=O)O

For H29C14—NH—CO-Dab-Val-Dab-OH, the normalized peptide content runs as follows: (3 eq. CaCl2 (382 mmol/kg), t0, 127 mmol/kg peptide in Glycerin water) 100.0%; (3 eq. CaCl2, 1 Month, 127 mmol/kg peptide in Glycerin water) 92.2%; (3 eq. CaCl2, 2 Month, 127 mmol/kg peptide in Glycerin water) 96.9%; (3 eq. CaCl2, 3 Month, 127 mmol/kg peptide in Glycerin water) 101.1%; (3 eq. CaCl2, 4 Month, 127 mmol/kg peptide in Glycerin water) 95.4%; (3 eq. CaCl2, 5 Month, 127 mmol/kg peptide in Glycerin water) 89.0%. Besides, the normalized peptide content is, setting by setting: (3 eq. CaCl2, 6 Month, 127 mmol/kg peptide in Glycerin water) 88.9%; (3 eq. LiCl (382 mmol/kg), t0, 127 mmol/kg peptide in Glycerin water) 100.0%; (3 eq. LiCl, 1 Month, 127 mmol/kg peptide in Glycerin water) 93.1%; (3 eq. LiCl, 2 Month, 127 mmol/kg peptide in Glycerin water) 95.3%; (3 eq. LiCl, 3 Month, 127 mmol/kg peptide in Glycerin water) 99.8%; (3 eq. LiCl, 4 Month, 127 mmol/kg peptide in Glycerin water) 96.4%. The normalized peptide content by setting is: (3 eq. LiCl, 5 Month, 127 mmol/kg peptide in Glycerin water) 90.7%; (3 eq. LiCl, 6 Month, 127 mmol/kg peptide in Glycerin water) 87.6%; (3 eq. MgCl2 (382 mmol/kg), t0, 127 mmol/kg peptide in Glycerin water) 100.0%; (3 eq. MgCl2, 1 Month, 127 mmol/kg peptide in Glycerin water) 93.7%; (3 eq. MgCl2, 2 Month, 127 mmol/kg peptide in Glycerin water) 96.5%; (3 eq. MgCl2, 3 Month, 127 mmol/kg peptide in Glycerin water) 100.0%. Besides, the normalized peptide content by setting is: (3 eq. MgCl2, 4 Month, 127 mmol/kg peptide in Glycerin water) 94.9%; (3 eq. MgCl2, 5 Month, 127 mmol/kg peptide in Glycerin water) 89.7%; (3 eq. MgCl2, 6 Month, 127 mmol/kg peptide in Glycerin water) 90.7%; (3 eq. ZnCl2 (382 mmol/kg), t0, 127 mmol/kg peptide in Glycerin water) 100.0%; (3 eq. ZnCl2, 1 Month, 127 mmol/kg peptide in Glycerin water) 88.5%; (3 eq. ZnCl2, 2 Month, 127 mmol/kg peptide in Glycerin water) 93.5%. For the same substance, the normalized peptide content (3 eq. ZnCl2, 3 Month, 127 mmol/kg peptide in Glycerin water) came to 98.7%; the normalized peptide content (3 eq. ZnCl2, 4 Month, 127 mmol/kg peptide in Glycerin water) is 96.5%; the normalized peptide content (3 eq. ZnCl2, 5 Month, 127 mmol/kg peptide in Glycerin water) is given as 88.1%; the normalized peptide content (3 eq. ZnCl2, 6 Month, 127 mmol/kg peptide in Glycerin water) came out at 92.3%; the normalized peptide content (No salt, 1 Month, 127 mmol/kg peptide in Glycerin water) was 106.2%; the normalized peptide content (No salt, 2 Month, 127 mmol/kg peptide in Glycerin water) is given as 91.7%. Moreover, the normalized peptide content (No salt, 3 Month, 127 mmol/kg peptide in Glycerin water) is on record as 18.9%; the normalized peptide content (No salt, 4 Month, 127 mmol/kg peptide in Glycerin water) is reported as 11.5%; the normalized peptide content (No salt, 5 Month, 127 mmol/kg peptide in Glycerin water) came to 10.1%; the normalized peptide content (No salt, t0, 127 mmol/kg peptide in Glycerin water (~2.3:1)) was 100.0%.

With “Palm-Lys-Val-Dab-OH (Palmitoyl-Lys-Val-[Dab]-OH; SMILES CCCCCCCCCCCCCCCC(=O)N[C@@H](CCCCN)C(=O)N[C@H](C(=O)N[C@@H](CCN)C(=O)O)C(C)C) [peptide substituted with a lipophilic moiety; Palm means palmitoyl and Dab means 2,4-diaminobutyroyl]”, the normalized peptide content turned out to be 71.7% (1 eq MgCl2, 1 Month, 246 mmol/kg peptide in Glycerin water); 100.0% (1 eq MgCl2, t0, 246 mmol/kg peptide in Glycerin water); 75.9% (3 eq LiCl, 1 Month, 246 mmol/kg peptide in Glycerin water); 100.0% (3 eq LiCl, t0, 246 mmol/kg peptide in Glycerin water); 70.5% (3 eq MgCl2, 1 Month, 246 mmol/kg peptide in Glycerin water); 100.0% (3 eq MgCl2, t0, 246 mmol/kg peptide in Glycerin water). Further, the normalized peptide content is, setting by setting: (3 eq NaCl, 1 Month, 246 mmol/kg peptide in Glycerin water) 75.7%; (3 eq NaCl, t0, 246 mmol/kg peptide in Glycerin water) 100.0%; (No salt, 1 Month, 246 mmol/kg peptide in Glycerin water) 44.2%; (No salt, t0, 246 mmol/kg peptide in Glycerin water (~2.3:1)) 100.0%.

“Palm-Lys-Val-Lys-OH (Palmitoyl-Lys-Val-Lys-OH; SMILES CCCCCCCCCCCCCCCC(=O)N[C@@H](CCCCN)C(=O)N[C@H](C(=O)N[C@@H](CCCCN)C(=O)O)C(C)C) [peptide substituted with a lipophilic moiety; Palm means palmitoyl]”: the normalized peptide content was determined as 81.4% (1 eq MgCl2, 1 Month, 119 mmol/kg peptide in Glycerin water); 100.0% (1 eq MgCl2, t0, 119 mmol/kg peptide in Glycerin water); 83.6% (3 eq LiCl, 1 Month, 119 mmol/kg peptide in Glycerin water); 100.0% (3 eq LiCl, t0, 119 mmol/kg peptide in Glycerin water); 87.4% (3 eq MgCl2, 1 Month, 119 mmol/kg peptide in Glycerin water); 100.0% (3 eq MgCl2, t0, 119 mmol/kg peptide in Glycerin water). In addition, the normalized peptide content reads like this: (3 eq NaCl, 1 Month, 119 mmol/kg peptide in Glycerin water) 82.0%; (3 eq NaCl, t0, 119 mmol/kg peptide in Glycerin water) 100.0%; (No salt, 1 Month, 119 mmol/kg peptide in Glycerin water) 76.4%; (No salt, t0, 119 mmol/kg peptide in Glycerin water (~2.3:1)) 100.0%.

These data come from patent publication US8541361B2, “Composition” (DSM IP Assets B.V., priority 2009, dated 2013).
